Laboratory results reported in ChEMBL document CHEMBL3885861, “Open TG-GATES”.

Species on record: Rattus norvegicus
Test: Open TG-GATES - Regimen: Daily Repeat
Type: toxicity, organism-based, Sprague-Dawley
Design: regimen Daily Repeat, gender Male, age 6 weeks
Details: in vivo, po, 30 mg/kg, route gavage, dose level Middle; for APTT / Bas / Eos / Fbg / Hb / Ht / Lym / MCH / MCHC / MCV / Mono / Neu / PT / Plat / RBC / Ret / WBC: tissue Blood; for KIDNEY_L / KIDNEY_R / KIDNEY_TOTAL: tissue Kidney; for LIVER: tissue Liver; for A/G / ALP / ALT / AST / BUN / CRE / Ca / Cl / DBIL / GLC / IP / K / LDH / Na / PL / RALB / TBIL / TC / TG / TP / gamma-GTP: tissue Plasma

## Nc1ccc(Cc2ccc(N)cc2)cc1
72 h, time 3 day
  TERMINAL_BW: 240.8 g
  APTT: 13.8 s
  Bas: 0%
  Eos: 1%
  Fbg: 295.8 mg/dL
  Hb: 13.3 g/dL
  Ht: 39.3%
  Lym: 72.6%
  MCH: 20.5 pg
  MCHC: 33.8%
  MCV: 60.6 fL
  Mono: 2.6%
  Neu: 23%
  PT: 11.4 s
  Plat: 133.5 x10_4/uL
  RBC: 649.4 x10_4/ul
  Ret: 5.6%
  WBC: 112 x10_2/uL
  KIDNEY_L: 1 g
  KIDNEY_R: 1 g
  KIDNEY_TOTAL: 2 g
  LIVER: 12.3 g
  A/G: 0.8
  ALP: 1785.8 IU/L
  ALT: 59.4 IU/L
  AST: 104 IU/L
  BUN: 14.6 mg/dL
  CRE: 0.2 mg/dL
  Ca: 11.1 mg/dL
  Cl: 105.6 meq/L
  DBIL: 0.022 mg/dL
  GLC: 159.2 mg/dL
  IP: 7.5 mg/dL
  K: 4.2 meq/L
  LDH: 89.2 IU/L
  Na: 143.4 meq/L
  PL: 160 mg/dL
  RALB: 2.6 g/dL
  TBIL: 0.05 mg/dL
  TC: 95.8 mg/dL
  TG: 83.4 mg/dL
  TP: 5.8 g/dL
  gamma-GTP: 2 IU/L
[…], time 7 day
  TERMINAL_BW: 277.9 g
  APTT: 14.2 s
  Bas: 0.2%
  Eos: 0.8%
  Fbg: 286 mg/dL
  Hb: 13.7 g/dL
  Ht: 39.1%
  Lym: 71.6%
  MCH: 20.6 pg
  MCHC: 34.9%
  MCV: 59.1 fL
  Mono: 2.8%
  Neu: 23.8%
  PT: 11.4 s
  Plat: 147.7 x10_4/uL
  RBC: 663 x10_4/ul
  Ret: 5.2%
  WBC: 101.6 x10_2/uL
  KIDNEY_L: 1.1 g
  KIDNEY_R: 1.1 g
  KIDNEY_TOTAL: 2.2 g
  LIVER: 13.2 g
  A/G: 0.8
  ALP: 1631.6 IU/L
  ALT: 37 IU/L
  AST: 68 IU/L
  BUN: 17.4 mg/dL
  CRE: 0.2 mg/dL
  Ca: 11.2 mg/dL
  Cl: 105.2 meq/L
  DBIL: 0.026 mg/dL
  GLC: 173.6 mg/dL
  IP: 7.4 mg/dL
  K: 4.1 meq/L
  LDH: 85.2 IU/L
  Na: 143 meq/L
  PL: 145 mg/dL
  RALB: 2.7 g/dL
  TBIL: 0.064 mg/dL
  TC: 81 mg/dL
  TG: 125.2 mg/dL
  TP: 6 g/dL
  gamma-GTP: 1.2 IU/L
[…], time 14 day
  TERMINAL_BW: 333.9 g
  APTT: 15.3 s
  Bas: 0.2%
  Eos: 0.6%
  Fbg: 273.6 mg/dL
  Hb: 13.7 g/dL
  Ht: 39.6%
  Lym: 75%
  MCH: 20.1 pg
  MCHC: 34.7%
  MCV: 57.9 fL
  Mono: 2.2%
  Neu: 21.2%
  PT: 11.8 s
  Plat: 141.9 x10_4/uL
  RBC: 684.8 x10_4/ul
  Ret: 4.6%
  WBC: 128.9 x10_2/uL
  KIDNEY_L: 1.2 g
  KIDNEY_R: 1.2 g
  KIDNEY_TOTAL: 2.4 g
  LIVER: 15.2 g
  A/G: 0.8
  ALP: 1617.2 IU/L
  ALT: 38.4 IU/L
  AST: 66.4 IU/L
  BUN: 15.6 mg/dL
  CRE: 0.2 mg/dL
  Ca: 10.9 mg/dL
  Cl: 105 meq/L
  DBIL: 0.016 mg/dL
  GLC: 190.6 mg/dL
  IP: 6.8 mg/dL
  K: 3.7 meq/L
  LDH: 71.8 IU/L
  Na: 143.2 meq/L
  PL: 141.2 mg/dL
  RALB: 2.6 g/dL
  TBIL: 0.054 mg/dL
  TC: 72.8 mg/dL
  TG: 96.8 mg/dL
  TP: 6.1 g/dL
  gamma-GTP: 1 IU/L
[…], time 28 day
  TERMINAL_BW: 429.1 g
  APTT: 17.1 s
  Bas: 0.8%
  Eos: 1%
  Fbg: 273.4 mg/dL
  Hb: 14.9 g/dL
  Ht: 41.7%
  Lym: 76.8%
  MCH: 19.8 pg
  MCHC: 35.7%
  MCV: 55.5 fL
  Mono: 2.2%
  Neu: 19%
  PT: 11.9 s
  Plat: 109.8 x10_4/uL
  RBC: 752 x10_4/ul
  Ret: 2.7%
  WBC: 131.8 x10_2/uL
  KIDNEY_L: 1.4 g
  KIDNEY_R: 1.4 g
  KIDNEY_TOTAL: 2.9 g
  LIVER: 19.2 g
  A/G: 0.7
  ALP: 1167.6 IU/L
  ALT: 38.6 IU/L
  AST: 66.2 IU/L
  BUN: 15.4 mg/dL
  CRE: 0.2 mg/dL
  Ca: 11.1 mg/dL
  Cl: 104.8 meq/L
  DBIL: 0.024 mg/dL
  GLC: 178.6 mg/dL
  IP: 6.1 mg/dL
  K: 4 meq/L
  LDH: 74.6 IU/L
  Na: 145.2 meq/L
  PL: 141.6 mg/dL
  RALB: 2.6 g/dL
  TBIL: 0.062 mg/dL
  TC: 73.6 mg/dL
  TG: 110.4 mg/dL
  TP: 6.4 g/dL
  gamma-GTP: 1 IU/L
